The values that follow come from PubChem BioAssay (NCI).

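Results reflect a 48-hour exposure of cells in 96-well plates to compound at five concentrations. GI50: concentration for 50% inhibition of growth. The concentration for full growth arrest is given as TGI.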 Some results are limits rather than exact numbers.

Common to all, as to assay: inhibition of tumour cell growth, NCI panel, 48 h
Assay [1] has as its system HL-60(TB) leukemia.
Assay [2] has as its system M14 melanoma.
Assay [3] deals with HCC-2998 colon.
In assay [4] the test system is HT29 colon.
In assay [5] the test system is HOP-62 NSCLC.
Assay [6] relates to TK-10 renal.
Assay [7] has as its system NCI-H23 lung.
Assay [8] concerns RPMI-8226 leukemia.
Assay [9] has as its system HCT-15 colon.
The subject of assay [10] is A498 renal.
Assay [11] concerns IGROV1 ovarian.
For assay [12], the system named is SK-MEL-28 melanoma.

For the compound `Cc1cccc(-c2cc(=O)c3ccc(C)nc3[nH]2)c1`, the TGI in assay [1] was 0.526 µM; in assay [2] it was more than 100 µM; in [3], 27.4 µM; in assay [4], 1.82 µM; in [5] it was more than 100 µM; in assay [6], more than 84.6 µM. The TGI in assay [7] was more than 37.9 µM; in assay [8] it was 23.2 µM; in [9], more than 35.2 µM; in assay [10], more than 51.1 µM; in assay [11] it was more than 100 µM; in assay [12], more than 100 µM.
Consider `N=c1c2c3n(c4c(=O)n(-c5ccccc5)c(=S)n(c(=O)n1-c1ccccc1)c24)CCCCC3`, for which the TGI in assay [1], in assay [2], in assay [3], in assay [4], in [5] and in assay [6] was more than 100 µM each time. The TGI in assay [7], in assay [8], in [9], in assay [10], in [11] and in assay [12] was more than 100 µM in each case.
Take `COc1ccc(/C=C2\CN(C)CC3=C2OC(N)=C(C#N)C3c2ccc(OC)cc2)cc1` (stereo not drawn): the TGI was more than 27.6 µM in assay [1]; more than 100 µM in [2]; more than 90.5 µM in [3]; more than 100 µM in assay [4]; more than 100 µM in assay [5]; more than 100 µM in assay [6]. Also, the TGI is more than 100 µM in assay [7]; more than 43.9 µM in assay [8]; more than 100 µM in assay [9]; more than 100 µM in assay [10]; more than 95.5 µM in assay [11]; more than 100 µM in [12].
Regarding `C[n+]1c2ccccc2c(CNC(CCC(N)=O)C(=O)O)c2ccccc21` (stereo not drawn), the TGI in assay [1] is 7.65 µM; in assay [2], 12.2 µM; in assay [3], 11.2 µM; in [4], 7.01 µM; in assay [5] it was 12.3 µM; in assay [6] it was 5.68 µM. The TGI was 13.1 µM in [7]; 2.54 µM in [8]; 4.31 µM in assay [9]; 6.93 µM in assay [10]; 13.4 µM in assay [11]; 12.1 µM in assay [12].
Regarding `COC(=O)c1ccc2n1C1CC3CC(CC2C3)C1`, the TGI in [1] is 54.7 µM; in assay [2], more than 100 µM; in assay [3], more than 100 µM; in assay [4], more than 100 µM; in [5] it was more than 100 µM; in [6] it was more than 100 µM. For the same compound, the TGI in assay [7], in assay [8], in [9], in [10], in assay [11] and in [12] was more than 100 µM throughout.
Take `O=C(O)c1c(-c2c3ccc(=O)cc-3oc3cc(O)ccc23)cc2ccccc2c1-c1ccccc1`: the TGI in assay [1] is more than 100 µM; in assay [2], more than 100 µM; in assay [3] it was more than 68.4 µM; in [4], more than 100 µM; in [5], more than 100 µM; in assay [6], more than 100 µM. The TGI in [7], in assay [8], in assay [9], in assay [10], in [11] and in [12] was more than 100 µM throughout.
Take `COC1(OC)N=C(N)C2(C#N)C(C)CC(=O)N(N(C)C)C12C#N` (stereo not drawn): the TGI in assay [1], in [2], in assay [3], in [4], in assay [5] and in assay [6] was more than 100 µM each time. For the same compound, the TGI in assay [7], in assay [8], in assay [9], in [10], in [11] and in assay [12] was more than 100 µM each time.
For `CN1N=C2c3ccccc3CC[C@H]2C1c1ccccc1` (stereo partly drawn), the TGI in assay [1], in assay [2], in assay [3], in [4], in assay [5] and in [6] was more than 100 µM throughout. Also, the TGI in [7], in assay [8], in assay [9], in assay [10], in assay [11] and in assay [12] was more than 100 µM in each case.
Regarding `O=C(O)c1c(CC(Cc2ccc3c(c2)CCCC3)C(=O)O)ccc2c1CCCC2` (stereo not drawn), the TGI in assay [1], in assay [2], in [3], in assay [4], in [5] and in assay [6] was more than 100 µM each time. Also, the TGI in [7], in [8], in assay [9], in [10], in assay [11] and in assay [12] was more than 100 µM in each case.
On to `Cc1cc2c(cc1O)CC[C@@H]1[C@@H]2CC[C@]2(C)[C@@H](O)CC[C@@H]12`, for which the TGI in assay [1] stood at 5.54 µM; in assay [2] it was 21.4 µM; in [3] it was 24.1 µM; in assay [4], 31.6 µM; in assay [5], 24.9 µM; in [6], 91.5 µM. Moreover, the TGI came out at 35 µM in assay [7]; 19.2 µM in assay [8]; 16.4 µM in [9]; 37.9 µM in [10]; 45.4 µM in assay [11]; 27.3 µM in [12]. The GI50 in [5] was 10.9 µM.
As to `O=C1CN(c2ccc(Cl)cc2)C(=O)CN1CCN1CC(=O)N(c2ccc(Cl)cc2)CC1=O`, the TGI in assay [1], in assay [2], in [3], in [4], in [5] and in assay [6] was more than 100 µM each time. Moreover, the TGI in [7], in assay [8], in assay [9], in [10], in assay [11] and in [12] was more than 100 µM in each case.
